Measurements: patent US20150150888A1, “COMBINATION OF SELECTIVE PROGESTERONE-RECEPTOR MODULATORS AND NONSTEROIDAL ANTI-INFLAMMATORY DRUGS” (LABORATOIRE HRA-PHARMA, priority 2012, published 2015)

Legend:
[1] = single dose of 30 mg within 72 or 120 hours after sexual intercourse; cited from earlier work
[2] = tested on: LH-induced ovarian follicle rupture; experiment: morphological and histological examination of the ovaries (unruptured follicles, yellow bodies) in the superovulation model; assay type: in vivo, CD1 mice; conditions: 40 mg/kg UPA in the absence of piroxicam, compared with groups 3 and 4
Method: (§1) 24 to 28-day-old immature CD1 mice were subjected to ovarian hyperstimulation by injection of 5 IU of PMSG (pregnant mare's serum gonadotropin) followed, 48 h later, by 5 IU of hCG (chorionic gonadotropin hormone) intraperitoneally. The mice were divided up into several groups, each of 10 mice. 8 hours after the hCG injection, the mice were administered, intraperitoneally, with either the compound(s) to be tested, or the placebo (vehicle). The mice were euthanized 18 hours after the hCG injection. The effect of the compound(s) on follicular rupture and therefore ovulation was determined by counting the oocytes released into the oviducts. In experiment series No. 2, a morphological and histological examination of the ovaries was carried out so as to evaluate the presence of unruptured follicles and/or of yellow bodies in the ovaries of each group of animals.

follicular rupture = conditions: administration after the LH peak; cited from earlier work
[3] = tested on: LH-induced ovarian follicle rupture; experiment: ovarian hyperstimulation (superovulation) model: counting the oocytes released into the oviducts; assay type: in vivo, CD1 mice; conditions: for number of oocytes released into the oviducts compared with the control group: oocytes counted 18 h after hCG
Method: The effect of the combined administration of ulipristal acetate (UPA) and of a non-steroidal anti-inflammatory agent (NSAID) on LH-induced ovarian follicle rupture was evaluated in an animal model of ovarian hyperstimulation (superovulation model).
as §1
Series 1: • Group 1: placebo • Group 2: 3 mg/kg of piroxicam • Group 3: 10 mg/kg of piroxicam • Group 4: 30 mg/kg of piroxicam.
Series 2: • Group 1: placebo • Group 2: 40 mg/kg of ulipristal acetate • Group 3: 40 mg/kg of ulipristal acetate+3 mg/kg of piroxicam • Group 4: 40 mg/kg of ulipristal acetate+30 mg/kg of piroxicam. […]

## CC(=O)O[C@]1(C(C)=O)CCC2C3CCC4=CC(=O)CCC4=C3[C@@H](c3ccc(N(C)C)cc3)C[C@@]21C (stereo partly drawn) [ulipristal acetate, 17α-acetoxy-11β-[4-N,N-dimethylaminophenyl)-19-norpregna-4,9-diene-3,20-dione]
[1]
  prevention of unwanted pregnancy after unprotected or poorly protected sexual intercourse: safe and effective
[2]
  yellow bodies (corpus luteum) in histological sections: more numerous
Follicular rupture
  inhibition of follicular rupture during the 5 days following administration, cases: 8.3%
[3]; 40 mg/kg UPA 8 h after hCG injection, piroxicam series 2
  mean number of oocytes released compared with the control group: approximately −50%
[3]; group 2: 40 mg/kg ulipristal acetate, ibuprofen series 2
  number of oocytes released compared with the control group: significant decrease

## CC(C)Cc1ccc(C(C)C(=O)O)cc1 (stereo not drawn) [ibuprofen]
[3]; ibuprofen alone, dose between 15 mg and 150 mg (per kg)
  effect on ovulation compared with the control group: no significant effect

## CN1C(C(=O)Nc2ccccn2)=C(O)c2ccccc2S1(=O)=O [piroxicam]
[3]; piroxicam 3 mg/kg i.p. 8 h after hCG
  number of oocytes released into the oviducts compared with the control group: does not significantly reduce
[3]; piroxicam 10 mg/kg i.p. 8 h after hCG
  number of oocytes released into the oviducts compared with the control group: does not significantly reduce
[3]; piroxicam 30 mg/kg i.p. 8 h after hCG
  number of oocytes released into the oviducts compared with the control group: significantly reduce
